Source: patent US12559506B2, “Indazole based compounds and associated methods of use” (Arvinas Operations, Inc., priority 2021, dated 2026)
Read-outs that look alike come from different tables or passages of the source.

Biological target: T1, LRRK2 (endogenous, HiBit tagged) (Homo sapiens, UniProt Q5S007)
T1 construct: endogenous in cells; host or cells: HEK293 cells with HiBit knock-in at the endogenous LRRK2 locus, stably expressing firefly luciferase
Assay: Endogenous LRRK2 degradation assay, endogenous gene C-terminally HiBit-tagged in HEK293 cells (Nano-Glo Dual Luciferase)
Type: cell-based
From the text: Exemplary Assay for Testing LRRK2 Degradation Driven by Exemplary Hetero-Bifunctional Compounds Designed to Target LRRK2
The assay measures the degradation of LRRK2 in cells where the C-terminus (3′) of the endogenous gene has been tagged with a HiBit sequence in HEK293 cells. The cells also express firefly luciferase, expressed from a Cytomegalovirus promoter and introduced into the HiBit tagged cells and stably expressed. The Nano-Glo® Dual Luciferase Reporter Assay System (Promega™, Madison, WI) was utilized.
Day 1—Preparation of Compound and Assay Plates. Two sets of plates were prepared: a triplicate set for the HiBit assay in white 384-well plates and a triplicate set of plate in black 384-well plates for the Alamar Blue cell viability assay. Briefly, the growth media (DMEM+Glutamax-10% fetal bovine serum-1% Penicillin-Streptomicin) from two T128 flasks was aspirated from the flasks. Cells were washed with Dulbecco's Phosphate Buffered Saline (dPBS) and aspirated. Trypsin (3 mL per flask) was added and the flasks were incubated for 2-3 minutes.
Ten mL of OptiMEM-10% fetal bovine-1% penicillin-streptomycin (hereinafter, “OptiMEM media”) was added to the flask and the cells and transferred to a 50 mL conical tube. A cell count (25 ul of cell into Effendorf vial+25 ul of Trypan Blue Stain) was performed and the cell density adjusted to 15,000 cell/45 μl/well (3.33×10^5/mL) in OptiMEM media.
Fourty-five microliters of the cell suspension (15,000 cells) was aliquoted to each well of the white 384-well plate. The plates incubated at room temperature for 10 minutes before being placed in the 37° C.+5% CO2 incubator overnight
Day 2—Compound Treatment. Exemplary compounds were prepared at a 1 mM starting concentration and 1:3 serial dilution for 11 points CRC prepared and stored in the freezer. The Master Compound Plate was thawed overnight at room temperature. DMSO (20 μL) was added into column 24 of the Master Compound Plate for negative control and 20 μL of 300 μM of Compound 4 in column 23 as positive control.
Intermediate Compound Plate with 4% DMSO in OptiMEM Media. DMSO was added to warm OptiMEM media to achieve a 4% DMSO solution (approximately 50 mL/plate). One-hundred microliters of the OptiMEM-4% DMSO was aliquoted to each well of 384-Well Deep Well Microplates.
The Master Compound Plate and the Intermediate Compound Plate were spun down.
One microliter of compound from the Master Compound Plate was transferred into the Intermediate plate (a 1:100 dilution). The diluted mixture was mixed and 5 μL transferred into the assay plate (a 1:10 dilution) for the final starting concentration of 1 μM. The Treated Assay plates were incubated for 24 hours at 37° C.+5% CO2. The Master Compound Plate was sealed and store at room temperature for a second run that was performed within a week.
Day 3—HiBit Assay. Five microliters of Alamar Blue was added to each well of the black 384-well plates. The plates were incubated for 2 hours in the incubator (37° C.+5% CO2) and at room temperature for one hour. Fluorescence of each plate was read on a plated reader for the Alamar Blue viability assay.
One set of white assay plates was warmed to room temperature (45 minute).
The One Glo luciferase mixture was prepared. The media from white 384-well assay plates was aspirated. Twenty-five μL of the One Glo luciferase mixture was added to each well of the assay plates. The plates were incubated on the bench (room temperature) for 45 minutes, including 10 minutes of shaking at 700 rpm. The luminescence of each plate was read on a plate reader.
1:100 DLR substrate and 1:100 LgBiT Protein dilution were added to the Promega Stop and Glo buffer and mixed just before addition to assay plates. Twenty-five microliters of Stop and Glo mixture was added to each well. Assay plates incubated for at least 45 minutes, including 10 minutes of shaking at 700 rpm. The luminescence of each plate was read on a plate reader.
Analysis of LRRK2 HiBit Screening assays. […]

[1] = endogenous HiBit-tagged LRRK2 in HEK293 cells, 24 hours treatment, read-out: **Endogenous WT Dmax (%)
[2] = endogenous HiBit-tagged LRRK2 in HEK293 cells, 24 hours treatment, read-out: *Endogenous WT DC50
[3] = endogenous HiBit-tagged LRRK2 in HEK293 cells, 24 hours treatment, read-out: Endogenous WT DC50
[4] = endogenous HiBit-tagged LRRK2 in HEK293 cells, 24 hours treatment, read-out: Endogenous WT Dmax

T1 sequence (Q5S007 whole entry): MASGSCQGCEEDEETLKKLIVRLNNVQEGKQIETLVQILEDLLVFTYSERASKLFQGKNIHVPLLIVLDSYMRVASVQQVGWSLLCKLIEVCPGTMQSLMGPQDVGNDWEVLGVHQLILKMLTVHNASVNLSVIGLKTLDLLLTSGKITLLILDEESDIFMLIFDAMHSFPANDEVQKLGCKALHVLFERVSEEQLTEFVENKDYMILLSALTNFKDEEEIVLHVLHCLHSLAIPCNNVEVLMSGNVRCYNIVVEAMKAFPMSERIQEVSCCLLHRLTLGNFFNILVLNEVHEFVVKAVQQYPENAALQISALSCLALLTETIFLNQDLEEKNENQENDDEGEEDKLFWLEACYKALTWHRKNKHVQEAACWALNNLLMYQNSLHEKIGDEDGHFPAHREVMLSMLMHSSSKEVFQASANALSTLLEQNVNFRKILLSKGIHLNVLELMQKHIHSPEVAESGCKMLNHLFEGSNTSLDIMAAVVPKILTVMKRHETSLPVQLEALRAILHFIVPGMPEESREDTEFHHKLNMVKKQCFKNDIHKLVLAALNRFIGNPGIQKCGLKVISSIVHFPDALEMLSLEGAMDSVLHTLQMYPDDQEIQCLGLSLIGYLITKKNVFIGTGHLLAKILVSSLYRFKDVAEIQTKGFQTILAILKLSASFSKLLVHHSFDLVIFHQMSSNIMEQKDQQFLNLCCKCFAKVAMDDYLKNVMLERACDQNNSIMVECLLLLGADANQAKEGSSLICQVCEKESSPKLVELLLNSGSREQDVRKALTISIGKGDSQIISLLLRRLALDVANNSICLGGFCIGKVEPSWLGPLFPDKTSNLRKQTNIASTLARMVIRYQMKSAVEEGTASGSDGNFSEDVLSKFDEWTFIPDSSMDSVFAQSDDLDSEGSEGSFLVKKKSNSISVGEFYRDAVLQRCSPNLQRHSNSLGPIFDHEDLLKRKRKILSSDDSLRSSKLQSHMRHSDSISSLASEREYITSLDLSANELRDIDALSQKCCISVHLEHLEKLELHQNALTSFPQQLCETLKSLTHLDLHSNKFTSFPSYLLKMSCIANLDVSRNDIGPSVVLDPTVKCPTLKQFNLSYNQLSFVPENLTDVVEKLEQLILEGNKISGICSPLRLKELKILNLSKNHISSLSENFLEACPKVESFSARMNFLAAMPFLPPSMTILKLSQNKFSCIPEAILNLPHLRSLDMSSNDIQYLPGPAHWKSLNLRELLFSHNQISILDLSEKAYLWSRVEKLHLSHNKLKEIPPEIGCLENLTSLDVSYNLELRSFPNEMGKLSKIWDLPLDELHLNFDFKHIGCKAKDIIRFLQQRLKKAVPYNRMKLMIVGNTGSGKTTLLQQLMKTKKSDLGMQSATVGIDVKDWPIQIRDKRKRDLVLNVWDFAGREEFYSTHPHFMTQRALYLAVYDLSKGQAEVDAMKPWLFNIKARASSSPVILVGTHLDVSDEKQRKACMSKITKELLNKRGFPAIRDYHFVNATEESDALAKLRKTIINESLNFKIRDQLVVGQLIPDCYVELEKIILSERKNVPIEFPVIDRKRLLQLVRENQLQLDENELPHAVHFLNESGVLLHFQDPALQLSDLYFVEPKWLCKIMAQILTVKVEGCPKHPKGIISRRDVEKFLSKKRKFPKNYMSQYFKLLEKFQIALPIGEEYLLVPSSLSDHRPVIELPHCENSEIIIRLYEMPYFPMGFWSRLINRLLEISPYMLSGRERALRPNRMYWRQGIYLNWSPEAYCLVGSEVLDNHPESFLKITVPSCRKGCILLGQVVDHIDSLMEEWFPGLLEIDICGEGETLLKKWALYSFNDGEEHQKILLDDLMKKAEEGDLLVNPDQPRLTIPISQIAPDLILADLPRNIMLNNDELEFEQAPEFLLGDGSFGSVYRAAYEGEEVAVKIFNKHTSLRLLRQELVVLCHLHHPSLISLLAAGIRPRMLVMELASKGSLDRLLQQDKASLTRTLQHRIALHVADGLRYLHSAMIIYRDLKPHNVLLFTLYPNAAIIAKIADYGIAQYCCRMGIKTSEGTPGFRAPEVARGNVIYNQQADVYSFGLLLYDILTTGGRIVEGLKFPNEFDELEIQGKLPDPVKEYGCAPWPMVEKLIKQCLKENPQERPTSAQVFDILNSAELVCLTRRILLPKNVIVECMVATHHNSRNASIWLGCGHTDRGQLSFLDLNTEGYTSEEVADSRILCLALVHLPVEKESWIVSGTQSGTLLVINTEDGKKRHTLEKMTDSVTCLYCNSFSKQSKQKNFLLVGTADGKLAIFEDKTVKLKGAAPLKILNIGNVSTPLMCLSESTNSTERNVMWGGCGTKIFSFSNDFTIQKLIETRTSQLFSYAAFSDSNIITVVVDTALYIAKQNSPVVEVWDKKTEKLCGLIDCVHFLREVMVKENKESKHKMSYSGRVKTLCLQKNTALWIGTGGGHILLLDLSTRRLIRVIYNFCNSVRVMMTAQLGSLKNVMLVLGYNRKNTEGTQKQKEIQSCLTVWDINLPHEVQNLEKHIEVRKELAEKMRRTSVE

Dmax [1] | DC50 [2] | DC50 [3] | Dmax [4] | Compound | further results
50 to 70% | < 10 nM | – | – | CC1(Oc2ccc3[nH]nc(-c4cc(N5CCC(CN6CCC7(CN(c8ccc9c(c8F)CN(C8CCC(=O)NC8=O)C9=O)C7)C(F)(F)C6)CC5)ncn4)c3c2)CC1 (stereo not drawn) [Compound 350, 3-(5-{5,5-difluoro-7-[(1-{6-[5-(1-methylcyclopropoxy)-1H-indazol-3-yl]pyrimidin-4-yl}piperidin-4-yl)methyl]-2,7-diazaspiro[3.5]nonan-2-yl}-4-fluoro-1-oxo-2,3-dihydro-1H-isoindol-2-yl)piperidine-2,6-dione] | –
≥ 70% | < 10 nM | – | – | COc1c(N2CCC(C(C)(C)N3CCN(CC4CCN(c5cc(-c6n[nH]c7ccc(OC8(C)CC8)cc67)ncn5)CC4)CC3)CC2)ccc2c1CN(C1CCC(=O)NC1=O)C2=O (stereo not drawn) [Compound 318, 3-{4-methoxy-5-[4-(2-{4-[(1-{6-[5-(1-methylcyclopropoxy)-1H-indazol-3-yl]pyrimidin-4-yl}piperidin-4-yl)methyl]piperazin-1-yl}propan-2-yl)piperidin-1-yl]-1-oxo-2,3-dihydro-1H-isoindol-2-yl}piperidine-2,6-dione] | –
– | – | < 10 nM | 50 to 70% | Cc1cc(-c2n[nH]c3ccc(OC4(C)CC4)cc23)cc(N2CCN(C[C@H]3CC[C@H](OC4CCN(c5ccc6c(c5F)CN(C5CCC(=O)NC5=O)C6=O)CC4)CC3)CC2)n1 (stereo partly drawn) [Compound 379, 3-[4-fluoro-1-oxo-5-(4-{[(1r,4r)-4-[(4-{6-methyl-4-[5-(1-methylcyclopropoxy)-1H-indazol-3-yl]pyridin-2-yl}piperazin-1-yl)methyl]cyclohexyl]oxy}piperidin-1-yl)-2,3-dihydro-1H-isoindol-2-yl]piperidine-2,6-dione] | –
50 to 70% | < 10 nM | – | – | COc1c(N2CCC(N3CC(OC4CCN(c5cc(-c6[nH]nc7ccc(OC8(C)CC8)cc67)ncn5)CC4)C3)CC2)ccc2c1CN(C1CCC(=O)NC1=O)C2=O (stereo not drawn) [Compound 356, 3-[4-methoxy-5-(4-{3-[(1-{6-[5-(1-methylcyclopropoxy)-2H-indazol-3-yl]pyrimidin-4-yl}piperidin-4-yl)oxy]azetidin-1-yl}piperidin-1-yl)-1-oxo-2,3-dihydro-1H-isoindol-2-yl]piperidine-2,6-dione] | –
– | – | < 10 nM | 50 to 70% | COc1c(N2CCC(O[C@H]3CC[C@H](CN4CCN(c5cc(-c6[nH]nc7ccc(OC8(C)CC8)cc67)ncn5)CC4)CC3)CC2)ccc2c1CN(C1CCC(=O)NC1=O)C2=O (stereo partly drawn) [Compound 238, 3-[4-methoxy-1-oxo-5-(4-{[(1r,4r)-4-[(4-{6-[5-(1-methylcyclopropoxy)-2H-indazol-3-yl]pyrimidin-4-yl}piperazin-1-yl)methyl]cyclohexyl]oxy}piperidin-1-yl)-2,3-dihydro-1H-isoindol-2-yl]piperidine-2,6-dione] | –
– | – | < 10 nM | 50 to 70% | COc1c(N2CCC(O[C@H]3CC[C@H](OC4CCN(c5cc(-c6n[nH]c7ccc(OC8(C)CC8)cc67)ncn5)CC4)CC3)CC2)ccc2c1CN(C1CCC(=O)NC1=O)C2=O (stereo partly drawn) [Compound 248, 3-[4-methoxy-1-oxo-5-(4-{[(1r,4r)-4-[(1-{6-[5-(1-methylcyclopropoxy)-1H-indazol-3-yl]pyrimidin-4-yl}piperidin-4-yl)oxy]cyclohexyl]oxy}piperidin-1-yl)-2,3-dihydro-1H-isoindol-2-yl]piperidine-2,6-dione] | –
– | – | – | – | C[C@H]1CN(c2cc(-c3[nH]nc4ccc(OC5(C)CC5)cc34)ncn2)CCN1CCN1CCN(CC2CCN(c3ccc4c(c3)CN(C3CCC(=O)NC3=O)C4=O)CC2)CC1 (stereo partly drawn) [Compound 65, 3-(5-{4-[(4-{2-[(2S)-2-methyl-4-{6-[5-(1-methylcyclopropoxy)-2H-indazol-3-yl]pyrimidin-4-yl}piperazin-1-yl]ethyl}piperazin-1-yl)methyl]piperidin-1-yl}-1-oxo-2,3-dihydro-1H-isoindol-2-yl)piperidine-2,6-dione] | Dmax (endogenous HiBit-tagged LRRK2 in HEK293 cells, 24 hours, read-out: **Endogenous WT Dmax (%)): ≥ 70%; DC50 (endogenous HiBit-tagged LRRK2 in HEK293 cells, 24 hours, read-out: *Endogenous WT DC50): < 10 nM
– | – | < 10 nM | 50 to 70% | COc1c(N2CCN(C[C@H]3CC[C@H](OC4CCN(c5cc(-c6n[nH]c7ccc(OC8(C)CC8)cc67)ncn5)CC4)CC3)C(C)(C)C2)ccc2c1CN(C1CCC(=O)NC1=O)C2=O (stereo partly drawn) [Compound 364, 3-[5-(3,3-dimethyl-4-{[(1r,4r)-4-[(1-{6-[5-(1-methylcyclopropoxy)-1H-indazol-3-yl]pyrimidin-4-yl}piperidin-4-yl)oxy]cyclohexyl]methyl}piperazin-1-yl)-4-methoxy-1-oxo-2,3-dihydro-1H-isoindol-2-yl]piperidine-2,6-dione] | –
– | – | – | – | CC1(Oc2ccc3[nH]nc(-c4cc(N5CCC(CN6CCN(CC7CCN(c8cc9c(cc8F)C(=O)N(C8CCC(=O)NC8=O)C9)CC7)CC6)CC5)ncn4)c3c2)CC1 (stereo not drawn) [Compound 180, 3-[6-fluoro-5-[4-[[4-[[1-[6-[5-(1-methylcyclopropoxy)-1H-indazol-3-yl]pyrimidin-4-yl]-4-piperidyl]methyl]piperazin-1-yl]methyl]-1-piperidyl]-1-oxo-isoindolin-2-yl]piperidine-2,6-dione] | Dmax (endogenous HiBit-tagged LRRK2, HEK293 cells, 24 hours, read-out: **Endogenous WT Dmax (%)): ≥ 70%; DC50 (endogenous HiBit-tagged LRRK2, HEK293 cells, 24 hours, read-out: *Endogenous WT DC50): < 10 nM
50 to 70% | < 10 nM | – | – | CC1(Oc2ccc3[nH]nc(-c4cc(N5CCC(C(C)(C)N6CCN(CC7CCN(c8ccc9c(c8F)CN(C8CCC(=O)NC8=O)C9=O)CC7)CC6)CC5)ncn4)c3c2)CC1 (stereo not drawn) [Compound 320, 3-{4-fluoro-5-[4-({4-[2-(1-{6-[5-(1-methylcyclopropoxy)-1H-indazol-3-yl]pyrimidin-4-yl}piperidin-4-yl)propan-2-yl]piperazin-1-yl}methyl)piperidin-1-yl]-1-oxo-2,3-dihydro-1H-isoindol-2-yl}piperidine-2,6-dione] | –
– | – | < 10 nM | ≥ 70% | CC1(Oc2cc3c(-c4cc(N5CCC(O[C@H]6CC[C@H](OC7CCN(c8ccc9c(c8F)CN(C8CCC(=O)NC8=O)C9=O)CC7)CC6)CC5)ncn4)n[nH]c3cn2)CC1 (stereo partly drawn) [Compound 210, 3-[4-fluoro-5-[4-[4-[[1-[6-[5-(1-methylcyclopropoxy)-1H-pyrazolo[3,4-c]pyridin-3-yl]pyrimidin-4-yl]-4-piperidyl]oxy]cyclohexoxy]-1-piperidyl]-1-oxo-isoindolin-2-yl]piperidine-2,6-dione] | –

Compound | Dmax [1] | DC50 [2] | DC50 [3] | Dmax [4] | further results
CC1(Oc2ccc3n[nH]c(-c4cc(N5CCC6(CC5)CN([C@H]5C[C@H](OC7CCN(c8ccc9c(c8F)CN(C8CCC(=O)NC8=O)C9=O)CC7)C5)C6)ncn4)c3c2)CC1 (stereo partly drawn) [Compound 326, 3-(4-fluoro-1-oxo-5-{4-[(1r,3r)-3-(7-{6-[5-(1-methylcyclopropoxy)-2H-indazol-3-yl]pyrimidin-4-yl}-2,7-diazaspiro[3.5]nonan-2-yl)cyclobutoxy]piperidin-1-yl}-2,3-dihydro-1H-isoindol-2-yl)piperidine-2,6-dione] | 50 to 70% | < 10 nM | – | – | –
